The test system of the test is Meerschweinchen. As to the kind of experiment: Test for anti-dandruff effect on oleic-acid-treated back skin of shorn guinea pigs (skin fold thickness and visual scaling score). It counts as in vivo. The conditions noted are these: 5 % test substance with 5 % Ölsäure in 70 %igem Ethanol, topical on the back, 60 min exposure on 4 consecutive days, relative to skin treated with 5 % Ölsäure in 70 % Ethanol only, significant (+, 95 %). The source says:
Die Prüfung auf Antischuppenwirkung wurde in folgender Weise durchgeführt:
Die Prüfsubstanz wurde in 5 % iger Konzentration zusammen mit 5 % Ölsäure in 70 %igem Ethanol gelöst und in alternierender Reihenfolge und in rotierendem Schema auf den Rücken junger, geschorener weiblicher Meerschweinchen im Gewicht von 600 ± 50 g aufgetragen. Die Einwirkungszeit der Substanz wurde dabei auf 60 Minuten begrenzt, da diese Zeit ausreichte, um eine Wirkung zu erzielen. Anschließend wurden die Tiere mit warmem Wasser 30 Sekunden lang abgeduscht. Die Reihenfolge der Tiere bei der Applikation wechselte dabei täglich, um Differenzen in der Einwirkungszeit zwischen dem ersten und letzten Tier der Gruppe auf ein Minimum zu begrenzen. Diese Behandlung geschah an vier aufeinanderfolgenden Tagen, darauf folgte eine Ruhezeit (Entwicklungszeit von drei Tagen). Am siebenten Tag wurde ausgewertet, und zwar a) kutimetrisch auf Hautfaltendicke instrumentell mit dem Cutimeter nach Götze und b) visuell auf Schuppenbildung bzw. Hemmung nach einer 4-Punkte-Skala folgender Definition: • 0 = keine Schuppen • 1 = leichte Schuppen • 2 = kräftige Schuppen • 3= starke Schuppen mit Rötung • 4 = Krusten mit Aufrichten der Haare.
Die Versuchsgruppe bestand aus 6 Tieren. Das Kollektiv wurde mathematisch auf Homogenität geprüft und nach Eliminierung signifikant abweichender Tiere wurden Mittelwert und Streuung berechnet. […]

Take `COc1ccc(Cc2nccc3cc(OC)c(OC)cc23)cc1OC` [Papaverin, 1-(3',4'-dimethoxybenzyl)-6,7-dimethoxy-isochinolin]: where the note is “evaluated on day 7 with the Cutimeter nach Götze”, the “Hautdickenmessung Hemmung %” value was determined as 17%. Also, the “Hautschuppenmessung Hemmung %” value (evaluated visually on day 7 on a 0-4 scale) came out at 100%.

The record behind these values is EP0011821A2, “Antiseborrhoeic hair treatment composition” (Henkel Kommanditgesellschaft auf Aktien, priority 1978, dated 1980).
